Data: the supplement of paper PMC11061612

What was measured:
Assay in all cases: Bliss excess, mean over the matrix (fraction); higher = more synergy
[1] = system: BALL-1 (B-Lymphoblastic Leukemia)
Outline: (§1)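 After 24 hours at 37°C and 5% CO2 in 1536-well plates, cells in DMEM/F12 or RPMI plus 10% FBS received two-drug dose matrices for 72 hours. Viability came from CellTiter-Glo 2.0 luminescence and was scaled as inhibition, anchored at 0 by vehicle wells and at 1 by blank wells. Combination Emax is taken as the second-highest inhibition in the matrix, and Bliss excess as the observed combination effect less EA + EB − EA·EB, with EA and EB the single-agent effects.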

[2] = system: NCI-H1755 (Lung Adenocarcinoma)
Outline: as §1

RT4 (Bladder Carcinoma) = system: RT4 (Bladder Carcinoma)
Outline: as §1

[3] = system: OVTOKO (Ovarian Carcinoma)
Outline: as §1

[4] = system: PC-14 (Lung Adenocarcinoma)
Outline: as §1

[5] = system: HSC-3 (Oral Cavity Carcinoma)
Outline: as §1

[6] = system: HTC-C3 (Thyroid Gland Carcinoma)
Outline: as §1

[7] = system: NCI-H1155 (Non-Small Cell Lung Carcinoma)
Outline: as §1

[8] = system: COLO-684 (Endometrial Carcinoma)
Outline: as §1

[9] = system: AsPC-1 (Pancreatic Carcinoma)
Outline: as §1

[10] = system: AN3-CA (Endometrial Carcinoma)
Outline: as §1

[11] = system: OV-90 (Ovarian Carcinoma)
Outline: as §1

[12] = system: RERF-LC-KJ (Lung Adenocarcinoma)
Outline: as §1

[13] = system: KYSE-70 (Esophageal Squamous Cell Carcinoma)
Outline: as §1

[14] = system: RPMI-8866 (Chronic Myelogenous Leukemia)
Outline: as §1

KYM-1 (Rhabdomyosarcoma) = system: KYM-1 (Rhabdomyosarcoma)
Outline: as §1

[15] = system: EB-3 (Burkitt's Lymphoma)
Outline: as §1

[16] = system: SNU-175 (Colorectal Carcinoma)
Outline: as §1

[17] = system: SJRH30 (Rhabdomyosarcoma)
Outline: as §1

[18] = system: NCI-H810 (Non-Small Cell Lung Carcinoma)
Outline: as §1

Structure (SMILES) | Bliss excess [1] | Bliss excess [2] | Bliss excess (RT4 (Bladder Carcinoma)) | Bliss excess [3] | Bliss excess [4] | Bliss excess [5] | Bliss excess [6] | Bliss excess [7] | Bliss excess [8] | Bliss excess [9] | Bliss excess [10] | Bliss excess [11] | Bliss excess [12] | Bliss excess [13] | Bliss excess [14] | Bliss excess (KYM-1 (Rhabdomyosarcoma)) | Bliss excess [15] | Bliss excess [16] | Bliss excess [17] | Bliss excess [18]
COc1cccc2c1C(=O)c1c(O)c3c(c(O)c1C2=O)C[C@@](O)(C(=O)CO)C[C@@H]3O[C@H]1C[C@H](N)[C@H](O)[C@H](C)O1 [Doxorubicin] + Cc1cc2ncnn2cc1Nc1ncc2c(n1)n(C1CCOCC1)c(=O)n2C [AZD7648] (first compound max 1 µM, 7x7, partner max 10 µM) | 0.117 | 0.104 | 0.039 | -0.0578 | 0.0728 | 0.0907 | 0.0263 | 0.138 | -0.003 | -0.033 | -0.0534 | 0.0011 | 0.0113 | 0.0271 | 0.193 | 0.0837 | -0.0391 | 0.0265 | 0.122 | 0.0213
CC1(C)CCC(CN2CCN(c3ccc(C(=O)NS(=O)(=O)c4ccc(NCC5CCOCC5)c([N+](=O)[O-])c4)c(Oc4cnc5[nH]ccc5c4)c3)CC2)=C(c2ccc(Cl)cc2)C1 [Venetoclax] + C[C@@H](Nc1cc(F)cc(F)c1)c1cc(C(=O)N(C)C)cc2c(=O)cc(N3CCOCC3)oc12 [AZD8186] (first compound max 1 µM, 7x7, partner max 3 µM) | -0.0008 | 0.0229 | -0.0208 | -0.0535 | -0.0169 | -0.0286 | -0.0236 | -0.026 | -0.261 | -0.0817 | -0.0453 | -0.0441 | -0.0632 | -0.0239 | 0.0151 | -0.0138 | -0.0366 | -0.0201 | -0.0248 | -0.0489
COc1nnc2ccc(N3CCC(c4ccc(OCCN5CCN(C)C(=O)[C@H]5C)cc4)CC3)nn12 [AZD5153] + CCN(CCO)CCCOc1ccc2c(Nc3cc(CC(=O)Nc4cccc(F)c4)[nH]n3)ncnc2c1 [AZD2811] (first compound max 1 µM, 7x7, partner max 1 µM) | 0.0056 | -0.0058 | -0.0391 | -0.0423 | -0.0017 | -0.0509 | -0.05 | 0.0177 | 0.0152 | -0.0427 | -0.0375 | -0.0226 | -0.075 | -0.0265 | 0.0254 | -0.0682 | -0.0701 | -0.112 | 0.109 | -0.0068
COc1cc2ncnc(Nc3ccc(F)c(Cl)c3)c2cc1OCCCN1CCOCC1 [Gefitinib] + CC(C)n1c(=O)n(C)c2cnc3cc(F)c(-c4ccc(OCCCN5CCCCC5)nc4)cc3c21 [AZD1390] (first compound max 10 µM, 7x7, partner max 0.3 µM) | -0.07 | -0.0854 | -0.176 | -0.0672 | -0.0565 | -0.0649 | -0.0976 | -0.056 | -0.0395 | -0.0975 | -0.0592 | -0.0468 | -0.0807 | -0.038 | -0.0857 | -0.0515 | -0.0192 | -0.0457 | -0.0407 | -0.0863
CC(=O)c1c(C)c2cnc(Nc3ccc(N4CCNCC4)cn3)nc2n(C2CCCC2)c1=O [Palbociclib] + Cn1cnc2c(F)c(Nc3ccc(Br)cc3Cl)c(C(=O)NOCCO)cc21 [Selumetinib] (first compound max 10 µM, 7x7, partner max 10 µM) | -0.12 | 0.0425 | 0.0209 | -0.0503 | 0.0408 | -0.0418 | 0.0564 | -0.0201 | -0.04 | -0.0664 | -0.0278 | 0.0151 | -0.0208 | -0.0096 | 0.0259 | -0.0022 | -0.0727 | 0.0599 | -0.0131 | -0.0697
CN(C)CCCOc1ccc(-c2ccc3ncc4c(c3c2)n(C2CCOCC2)c(=O)n4C)cn1 [AZD0156] + C=CCn1c(=O)c2cnc(Nc3ccc(N4CCN(C)CC4)cc3)nc2n1-c1cccc(C(C)(C)O)n1 [AZD1775] (first compound max 1 µM, partner max 1 µM) | 0.0118 | -0.0462 | -0.0136 | -0.0255 | -0.0209 | -0.0534 | -0.0187 | -0.0213 | -0.0266 | -0.0179 | -0.0041 | -0.0335 | -0.0193 | -0.0531 | -0.0175 | -0.0123 | -0.0289 | 0.0169 | -0.0467 | -0.0519
CC(=O)c1c(C)c2cnc(Nc3ccc(N4CCNCC4)cn3)nc2n(C2CCCC2)c1=O [Palbociclib] + CC1(C)CCC(CN2CCN(c3ccc(C(=O)NS(=O)(=O)c4ccc(NCC5CCOCC5)c([N+](=O)[O-])c4)c(Oc4cnc5[nH]ccc5c4)c3)CC2)=C(c2ccc(Cl)cc2)C1 [Venetoclax] (first compound max 10 µM, 7x7, partner max 1 µM) | -0.0053 | 0.0337 | 0.0032 | -0.0114 | -0.0198 | 0.0148 | -0.0214 | 0.0241 | -0.0614 | -0.0715 | -0.024 | -0.0553 | -0.0314 | -0.0465 | -0.0632 | -0.0392 | -0.0455 | 0.0639 | -0.0363 | -0.0585
CN(CCO)CC[C@H](CSc1ccccc1)Nc1ccc(S(=O)(=O)NC(=O)c2ccc(N3CCC([C@@H](O)c4ccccc4-c4ccc(Cl)cc4)CC3)cc2)cc1S(=O)(=O)C(F)(F)F [AZD4320] + Cn1cnc2c(F)c(Nc3ccc(Br)cc3Cl)c(C(=O)NOCCO)cc21 [Selumetinib] (first compound max 1 µM, 7x7, partner max 3 µM) | -0.0246 | 0.0081 | 0.112 | 0.0554 | 0.0379 | 0.0228 | 0.069 | 0.0385 | 0.0023 | 0.0314 | 0.0455 | 0.0304 | 0.0144 | 0.0554 | 0.0349 | 0.0283 | -0.036 | 0.0316 | 0.0587 | -0.0577
CC1(C)CCC(CN2CCN(c3ccc(C(=O)NS(=O)(=O)c4ccc(NCC5CCOCC5)c([N+](=O)[O-])c4)c(Oc4cnc5[nH]ccc5c4)c3)CC2)=C(c2ccc(Cl)cc2)C1 [Venetoclax] + Cn1cnc2c(F)c(Nc3ccc(Br)cc3Cl)c(C(=O)NOCCO)cc21 [Selumetinib] (first compound max 1 µM, 7x7, partner max 3 µM) | -0.0026 | 0.0328 | -0.0521 | -0.0544 | -0.0229 | -0.0043 | -0.049 | -0.0317 | -0.0263 | -0.0748 | -0.0076 | -0.0345 | -0.0265 | 0.012 | -0.057 | -0.003 | -0.0241 | -0.0157 | -0.0199 | -0.052
Cc1c2c(nn1C)CSCc1cc(n(C)n1)CSc1cc(c3ccccc3c1)OCCCc1c(C(=O)O)n(C)c3c-2c(Cl)ccc13 [AZD5991] + C1CN(CCC1(C(=O)N[C@@H](CCO)C2=CC=C(C=C2)Cl)N)C3=NC=NC4=C3C=CN4 [Capivasertib] (first compound max 1 µM, 7x7, partner max 3 µM) | 0.0369 | 0.0186 | 0.023 | -0.0287 | 0.0145 | -0.0539 | -0.0091 | 0.0369 | -0.0411 | -0.0881 | 0.145 | 0.0139 | -0.0112 | 0.0065 | -0.0525 | 0.0807 | -0.0013 | 0.0213 | 0.0568 | 0.0083
Cc1cc2ncnn2cc1Nc1ncc2c(n1)n(C1CCOCC1)c(=O)n2C [AZD7648] + C[C@@H]1COCCN1C2=NC(=NC(=C2)C3(CC3)[S@](=N)(=O)C)C4=C5C=CNC5=NC=C4 [AZD6738] (first compound max 10 µM, 7x7, partner max 10 µM) | 0.0025 | 0.0513 | 0.0354 | 0.0118 | 0.0031 | -0.0299 | 0.0229 | 0.0038 | -0.0527 | 0.0133 | 0.0515 | -0.0156 | 0.0386 | 0.0213 | -0.028 | 0.0015 | -0.0278 | -0.0374 | 0.0113 | -0.0367
Cc1c2c(nn1C)CSCc1cc(n(C)n1)CSc1cc(c3ccccc3c1)OCCCc1c(C(=O)O)n(C)c3c-2c(Cl)ccc13 [AZD5991] + C[C@@H]1COCCN1C2=NC(=NC(=C2)C3(CC3)[S@](=N)(=O)C)C4=C5C=CNC5=NC=C4 [AZD6738] (first compound max 1 µM, 7x7, partner max 10 µM) | 0.0406 | -0.0171 | 0.0537 | 0.0404 | 0.0229 | 0.0094 | -0.0103 | 0.0521 | -0.0426 | 0.0026 | 0.0454 | 0.0235 | 0.0331 | 0.0485 | 0.0013 | 0.1 | 0.0209 | 0.135 | 0.0225 | 0.0552
CS(=O)(=O)CCNCc1ccc(-c2ccc3ncnc(Nc4ccc(OCc5cccc(F)c5)c(Cl)c4)c3c2)o1 [Lapatinib] + C[C@@H](Oc1cc(-c2cnn(C3CCNCC3)c2)cnc1N)c1c(Cl)ccc(F)c1Cl [Crizotinib] (first compound max 10 µM, 7x7, partner max 10 µM) | 0.0146 | -0.0468 | -0.0511 | -0.0437 | -0.028 | -0.0395 | 0.0215 | -0.0185 | -0.0364 | -0.031 | -0.0223 | -0.0019 | 0.074 | -0.0359 | 0.005 | -0.0515 | -0.0572 | -0.0001 | -0.0323 | -0.0386
C[C@@H]1COCCN1c1cc(C2([S@](C)(=N)=O)CC2)nc(-c2ccnc3[nH]ccc23)n1 [AZD6738] + O=C(c1cc(Cc2n[nH]c(=O)c3ccccc23)ccc1F)N1CCN(C(=O)C2CC2)CC1 [Olaparib] (first compound max 10 µM, 7x7, partner max 10 µM) | -0.0204 | -0.0131 | 0.0357 | 0.0182 | 0.0132 | 0.0043 | 0.0226 | 0.0374 | -0.109 | -0.027 | 0.0208 | 0.0053 | 0.0228 | 0.021 | -0.0143 | 0.0088 | -0.0955 | 0.0311 | -0.0205 | -0.008
